In patent publication US20120302490A1, “Bleach Catalyst Compounds, Method For The Production Thereof And Use Thereof” (CLARIANT FINANCE (BVI) LIMITED, priority 2009, published 2012):

Assay: Water absorption (hygroscopicity) of the solid upon storage
Assay type: physicochemical
Experimental: Tri-μ-oxobis[(1,4,7-trimethyl-1,4,7-triazacyclononane)manganese(IV)]dichloride is prepared analogously to comparative example 1 and isolated in pure form as a red-brown powder. 4.7 g (8 mmol) thereof are dissolved in 50 ml of water and admixed with 3.1 g (16 mmol) of toluene-4-sulfonic acid sodium salt (Merck). After-stirring is carried out for 1 hour at room temperature, followed by evaporation to dryness on a rotary evaporator.
Analogously to comparative example 1, an aqueous solution of 0.2 mol of tri-μ-oxobis[(1,4,7-trimethyl-1,4,7-triazacyclononane)manganese(IV)]dichloride in water is prepared and freed from manganese oxides/hydroxides. The salts contained as a result of the reaction (sodium chloride) remain in the solution. At 25° C., 0.4 mol (77.6 g) of solid toluene-4-sulfonic acid sodium salt (Merck) is added and the mixture is after-stirred for 30 minutes. The clear dark red solution is then evaporated to dryness. Drying in a vacuum drying cabinet gives a crystalline red-violet solid in 92.7% yield, a mixture of tri-μ-oxobis[(1,4,7-trimethyl-1,4,7-triaza-cyclononane)manganese(IV)]dichloride, sodium toluenesulfonate and sodium chloride.
The procedure is in accordance with example 2 but adding sodium cumenesulfonate instead of the sodium toluene-4-sulfonate (equimolar exchange of sodium toluene-4-sulfonate for sodium cumenesulfonate). Evaporation at 50° C. gives a red-brown solid which, after 5 days, absorbs 7.1% by weight of water and in so doing becomes lumpy.
4.4 g (7.5 mmol) of isolated tri-μ-oxobis[(1,4,7-trimethyl-1,4,7-triazacyclo-nonane)manganese(IV)]dichloride according to comparative example 1 are dissolved in 50 ml of water, and 4.3 g (15 mmol) of sodium dodecylsulfate are added. The mixture is after-stirred for 1 hour at room temperature and then evaporated to dryness on a rotary evaporator. This gives 8.7 g of crystalline red solid which, after storage for 5 days at room temperature, absorbs 8.7% by weight of water and in so doing becomes lumpy.

In the case of `CN1CCN(C)CCN(C)CC1.CN1CCN(C)CCN(C)CC1.[Cl-].[Cl-].[O]1[Mn+]2[O][Mn+]1[O]2` [compound 1, tri-μ-oxobis[(1,4,7-trimethyl-1,4,7-triazacyclononane)-manganese(IV)]dichloride], the “hygroscopicity of isolated powder” value (as isolated, red-brown powder) is reported as “strongly hygroscopic”, the “physical state after storage” value (open dish, room temperature, 24 hours) is reported as “becomes liquid” and the “water absorbed upon storage” value (open dish, room temperature, over the course of 24 hours) is reported as greater than 17 % by weight.
